For orientation: EC50 means the concentration that produces a half-maximal response.

The first assay relates to HBV rcDNA in HepDE19 cells. Kind of assay: HepDE19 assay with bDNA quantitation of HBV rcDNA. It counts as cell-based, hepatitis B virus (HBV). The conditions noted are these: HepDE19 cells, 7 day incubation, rcDNA by Quantigene 2.0 bDNA assay; read-out: DE-19 bDNA EC50. Put shortly:
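HepG2-derived HepDE19 cells, switched to Tet-free medium, were exposed 7 days at 37 °C to compound (8-point ½-log series from 25 μM, 0.5% DMSO). HBV rcDNA measured by bDNA assay with HBV-specific probes; EC50/EC90 by 4-parameter fit. CC50 from CellTiter-Glo ATP on replicate plates after 4 days.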
Consider `CN1CCC(NC(=O)OCc2ccccn2)c2cccc(C(=O)Nc3ccc(F)c(Cl)c3)c21` (single isomer, unassigned) [Compound 183, Pyridin-2-ylmethyl (8-((3-chloro-4-fluorophenyl)carbamoyl)-1-methyl-1,2,3,4-tetrahydroquinolin-4-yl)carbamate], for which the EC50 came out at 0.72 µM.

The same assay, now with this note: Hepatitis B virus, HepDE19, 168 h, HepDE19 cells, 7 day incubation, rcDNA by Quantigene 2.0 bDNA assay; read-out: DE-19 bDNA EC50.
With `Cc1cc(NC(=O)c2ccc(F)c3c2OCC[C@@H]3NC(=O)OCc2ccncn2)ccc1F` [Compound 130, Pyrimidin-4-ylmethyl (S)-(5-fluoro-8-((4-fluoro-3-methylphenyl)carbamoyl)chroman-4-yl)carbamate], the EC50 turned out to be 0.62 µM. On the same count and under the same terms, the result for `COC(=O)N[C@H]1CCSc2c(C(=O)Nc3ccc(F)c(F)c3)ccc(F)c21` [Compound 171, Methyl (S)-(8-((3,4-difluorophenyl)carbamoyl)-5-fluorothiochroman-4-yl)carbamate] reads 4.1 µM. For the compound `O=C(Nc1ccc(F)c(F)c1)c1cccc2c1OCC[C@@H]2Nc1ncccn1` [Compound 42, (S)-N-(3,4-difluorophenyl)-4-(pyrimidin-2-ylamino) chromane-8-carboxamide], the EC50 was 3.4 µM. On the same count and under the same terms, the result for `CC(C)NS(=O)(=O)N[C@H]1CCOc2c(C(=O)Nc3ccc(F)c(F)c3)cccc21` (stereo in doubt) [Compound 15] reads 9.7 µM; that for `COC(=O)N[C@H]1CCOc2c(C(=O)Nc3ccc(F)c(OC)c3)ccc(F)c21` [Compound 128, Methyl (S)-(5-fluoro-8-((4-fluoro-3-methoxyphenyl)carbamoyl)chroman-4-yl)carbamate], 1.2 µM. The same measure, in the same setting: for `Cc1cc(NC(=O)c2ccc(F)c3c2OCC[C@@H]3NC(=O)NCCC(=O)O)ccc1F` [Compound 152, (S)-3-(3-(5-Fluoro-8-((4-fluoro-3-methylphenyl)carbamoyl)chroman-4-yl)ureido)propanoic acid] the value was 15 µM; for `O=C(Nc1ccc(F)c(F)c1)c1cccc2c1OCCC2O` (stereo not shown) [Compound 3, N-(3,4-difluorophenyl)-4-hydroxychromane-8-carboxamide], 3.4 µM. As to `O=C(Nc1ccc(F)c(F)c1)c1ccc(Cl)c2c1OCCC2=O` [Compound 78, 5-chloro-N-(3,4-difluorophenyl)-4-oxochromane-8-carboxamide], the EC50 amounted to 7.3 µM.

With `O=C(Nc1ccc(F)c(F)c1)c1cccc2c1OCCC2c1ccncc1` (single isomer, unassigned) [Compound 69, N-(3,4-Difluorophenyl)-4-(pyridin-4-yl)chromane-8-carboxamide], the half-maximal effective concentration (EC50) turned out to be 12 µM. Same read-out and setting: the result for `C[C@@H](OC1CCOc2c(C(=O)Nc3ccc(F)c(F)c3)cccc21)c1ccncc1` (stereo partly drawn) [Compound 96, N-(3,4-difluorophenyl)-4-((R)-1-(pyridin-4-yl)ethoxy)chromane-8-carboxamide] reads 15 µM. Still for that read-out and setting: for `Cc1cccc(COC(=O)N[C@H]2CCOc3c(C(=O)Nc4ccc(F)c(F)c4)cccc32)n1` [Compound 53, (6-Methylpyridin-2-yl)methyl (S)-(8-((3,4-difluorophenyl)carbamoyl)chroman-4-yl)carbamate] the value was 4.4 µM. Still for that read-out and setting: the result for `O=C(N[C@H]1CCOc2c1ccc(F)c2C(=O)Nc1ccc(F)c(Cl)c1)OCc1ccccn1` [Compound 76, (S)-Pyridin-2-ylmethyl (8-((3-chloro-4-fluorophenyl)carbamoyl)-7-fluorochroman-4-yl)carbamate] reads 1.9 µM; that for `O=C(Nc1ccc(F)c(F)c1)c1cccc2c1OCCC2c1ccccn1` (stereo not shown) [Compound 68, N-(3,4-difluorophenyl)-4-(pyridin-2-yl)chromane-8-carboxamide], 3.4 µM. As for `COCCCOC(=O)N[C@H]1CCOc2c(C(=O)Nc3ccc(F)c(F)c3)cccc21` [Compound 19, 3-Methoxypropyl (8-((3,4-difluorophenyl)carbamoyl)chroman-4-yl) carbamate], the 50% effective concentration (EC50) came to 6 µM. Same read-out and setting: the result for `COC(=O)N[C@@H]1CCOc2c(C(=O)Nc3ccc(F)c(F)c3)ccc(F)c21` [Compound 39, methyl (R)-(8-((3,4-difluorophenyl)carbamoyl)-5-fluorochroman-4-yl)carbamate] reads 8.5 µM; that for `O=C(N[C@H]1CCOc2c1ccc(F)c2C(=O)Nc1ccc(F)c(F)c1)OCc1ccccn1` [Compound 59, (S)-Pyridin-2-ylmethyl (8-((3,4-difluorophenyl)carbamoyl)-7-fluorochroman-4-yl)carbamate], 5.3 µM. Regarding `COc1ccnc(N[C@H]2CCOc3c(C(=O)Nc4ccc(F)c(F)c4)cccc32)n1` [Compound 54, (S)—N-(3,4-Difluorophenyl)-4-((4-methoxypyrimidin-2-yl)amino)chromane-8-carboxamide], the EC50 stood at 4.1 µM.

Regarding `COC(=O)N[C@H]1CCOc2c(C(=O)Nc3cccc(C#N)c3)cccc21` [Compound 43, Methyl (S)-(8-((3-cyanophenyl)carbamoyl)chroman-4-yl)carbamate], the EC50 came out at 8.7 µM.

The assay is the same for the next values; noted with them: Hepatitis B virus, HepDE19, 168 h, read-out: DE-19 bDNA EC50, HepDE19 cells, 7 day incubation, rcDNA by Quantigene 2.0 bDNA assay.
In the case of `COC(=O)N[C@H]1CCOc2c1ccc(F)c2C(=O)Nc1ccc(F)c(F)c1` [Compound 47, Methyl (8-((3,4-difluorophenyl)carbamoyl)-7-fluorochroman-4-yl)carbamate], the EC50 is 3.6 µM.

Consider `COC(=O)N[C@H]1CCOc2c1ccc(F)c2C(=O)Nc1ccc(F)c(Cl)c1` [Compound 74, (S)-Methyl (8-((3-chloro-4-fluorophenyl)carbamoyl)-7-fluorochroman-4-yl)carbamate], for which the 50% effective concentration (EC50) is 1.9 µM. Same read-out and setting: the result for `O=C(N[C@H]1CCOc2c(C(=O)Nc3ccc(F)c(F)c3)cccc21)OCc1cccnc1` [Compound 23] reads 3 µM. For the compound `COC(=O)N[C@H]1CCOc2c(C(=O)Nc3ccc(F)c(C)c3)ccc(F)c21` [Compound 117, Methyl (5-fluoro-8-((4-fluoro-3-methylphenyl)carbamoyl)chroman-4-yl)carbamate], the EC50 turned out to be 0.22 µM. On the same count and under the same terms, the result for `COC(=O)N[C@@H]1CCOc2c(C(=O)Nc3ccc(F)c(F)c3)cccc21` [Compound 11, methyl (R)-(8-((3,4-difluorophenyl)carbamoyl)chroman-4-yl)carbamate] reads 21 µM. Still for that read-out and setting: for `CCOC(=O)N[C@H]1CCOc2c(C(=O)Nc3ccc(F)c(F)c3)cccc21` [Compound 18, Ethyl (8-((3,4-difluorophenyl)carbamoyl)chroman-4-yl)carbamate] the value was 6.6 µM.

As to `CNC(=O)N[C@H]1CCOc2c1ccc(Cl)c2C(=O)Nc1ccc(F)c(F)c1` [Compound 84, (S)-7-Chloro-N-(3,4-difluorophenyl)-4-(3-methylureido)chromane-8-carboxamide], the EC50 was found to be 11 µM. The same measure, in the same setting: the result for `COC(=O)N[C@H]1CCOc2c(C(=O)Nc3ccc(F)c(Cl)c3)ccc(F)c21` [Compound 91, Methyl (S)-(8-((3-chloro-4-fluorophenyl)carbamoyl)-5-fluorochroman-4-yl)carbamate] reads 0.2 µM.

Staying with this assay, now noted: read-out: DE-19 bDNA EC50; HepDE19 cells, 7 day incubation, rcDNA by Quantigene 2.0 bDNA assay.
In the case of `CC(=O)N1CCC(COC(=O)N[C@H]2CCOc3c(C(=O)Nc4ccc(F)c(F)c4)cccc32)C1` (single isomer, unassigned) [Compound 145], the EC50 stood at 7 µM.

Values taken from US11001564B2, “Substituted chromane-8-carboxamide compounds and analogues thereof, and methods using same” (priority 2016, dated 2021).
